Experimental findings from ChEMBL document CHEMBL1143427, “Interactions of ceftobiprole with beta-lactamases from molecular classes A to D” (Antimicrob Agents Chemother, 2007) are described below.

Structures are written as SMILES.

Assay [1] has as its target Beta-lactamase TEM (Escherichia coli) (UniProt P62593). Put plainly: Ratio of Kcat to Km of Escherichia coli TEM1 assessed as drug hydrolysis by spectrophotometry relative to cephaloridine. On the set-up: scale not given: the % may be the effect or the level left.
Assay [2] addresses T1, Beta-lactamase SHV-1 (Klebsiella pneumoniae) (UniProt P0AD64).
T1 sequence (whole entry): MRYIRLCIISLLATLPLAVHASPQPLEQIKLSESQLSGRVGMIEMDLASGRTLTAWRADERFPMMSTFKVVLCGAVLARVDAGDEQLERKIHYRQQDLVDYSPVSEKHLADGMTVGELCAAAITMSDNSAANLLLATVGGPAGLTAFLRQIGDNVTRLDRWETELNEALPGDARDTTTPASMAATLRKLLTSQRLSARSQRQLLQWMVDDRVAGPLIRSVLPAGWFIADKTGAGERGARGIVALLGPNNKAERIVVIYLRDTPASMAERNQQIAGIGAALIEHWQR
Briefly: Activity of Klebsiella pneumoniae SHV1 assessed as drug hydrolysis by spectrophotometry relative to cephaloridine. Details: scale not given: the % may be the effect or the level left.

Assay [3] addresses T1, Beta-lactamase SHV-1 (Klebsiella pneumoniae). Put plainly: Ratio of Kcat to Km of Klebsiella pneumoniae SHV1 assessed as drug hydrolysis by spectrophotometry relative to cephaloridine. Details: scale not given: the % may be the effect or the level left.
The target of assay [4] is Beta-lactamase CTX-M (Escherichia coli) (UniProt Q9EXV5). Briefly: Activity of Escherichia coli CTX-M-15 assessed as drug hydrolysis by spectrophotometry relative to cephaloridine. On the set-up: scale not given: the % may be the effect or the level left.
Assay [5] has the same target. Briefly: Ratio of Kcat to Km of Escherichia coli CTX-M-15 assessed as drug hydrolysis by spectrophotometry relative to cephaloridine. Details: scale not given: the % may be the effect or the level left.
For assay [6], the target named is T2, Beta-lactamase (Klebsiella oxytoca) (UniProt Q8RT60).
T2 sequence (whole entry): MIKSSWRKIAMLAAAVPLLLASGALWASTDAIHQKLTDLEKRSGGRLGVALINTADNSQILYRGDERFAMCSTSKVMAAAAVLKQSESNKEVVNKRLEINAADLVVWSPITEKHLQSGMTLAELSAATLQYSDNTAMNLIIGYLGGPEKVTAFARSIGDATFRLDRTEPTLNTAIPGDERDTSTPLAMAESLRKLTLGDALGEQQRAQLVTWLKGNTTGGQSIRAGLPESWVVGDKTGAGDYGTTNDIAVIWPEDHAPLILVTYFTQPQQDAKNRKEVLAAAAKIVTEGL
Put plainly: Activity of Klebsiella oxytoca beta-lactamase K1 assessed as drug hydrolysis by spectrophotometry relative to cephaloridine. On the set-up: scale not given: the % may be the effect or the level left.

The target in assay [7] is T2, Beta-lactamase (Klebsiella oxytoca). Briefly: Ratio of Kcat to Km of Klebsiella oxytoca beta-lactamase K1 assessed as drug hydrolysis by spectrophotometry relative to cephaloridine. On the set-up: scale not given: the % may be the effect or the level left.
Assay [8] relates to Klebsiella pneumoniae. Briefly: Activity of Klebsiella pneumoniae TEM26 assessed as drug hydrolysis by spectrophotometry.
The subject of assay [9] is Klebsiella pneumoniae. Put plainly: Activity of Klebsiella pneumoniae TEM26 assessed as drug hydrolysis by spectrophotometry relative to cephaloridine. On the set-up: scale not given: the % may be the effect or the level left.
In assay [10] the test system is Klebsiella pneumoniae. Briefly: Ratio of Kcat to Km of Klebsiella pneumoniae TEM26 assessed as drug hydrolysis by spectrophotometry.
For assay [11], the system named is Klebsiella pneumoniae. Put plainly: Ratio of Kcat to Km of Klebsiella pneumoniae TEM26 assessed as drug hydrolysis by spectrophotometry relative to cephaloridine. Details: scale not given: the % may be the effect or the level left.
Assay [12] deals with T3, Carbapenem-hydrolyzing beta-lactamase SME-3 (Serratia marcescens) (UniProt Q6PRG8).
T3 sequence (whole entry): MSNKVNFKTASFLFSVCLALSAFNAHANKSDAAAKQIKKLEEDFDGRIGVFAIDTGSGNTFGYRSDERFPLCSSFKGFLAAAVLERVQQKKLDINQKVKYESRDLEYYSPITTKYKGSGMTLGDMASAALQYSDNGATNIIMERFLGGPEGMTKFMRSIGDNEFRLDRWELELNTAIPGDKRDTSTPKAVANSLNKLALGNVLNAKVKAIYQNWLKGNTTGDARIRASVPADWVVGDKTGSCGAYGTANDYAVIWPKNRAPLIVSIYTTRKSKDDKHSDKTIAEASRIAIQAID
Briefly: Activity of Serratia marcescens SME3 assessed as drug hydrolysis by spectrophotometry relative to cephaloridine. Details: scale not given: the % may be the effect or the level left.

In assay [13] the target is T3, Carbapenem-hydrolyzing beta-lactamase SME-3 (Serratia marcescens). Put plainly: Ratio of Kcat to Km of Serratia marcescens SME3 assessed as drug hydrolysis by spectrophotometry relative to cephaloridine. On the set-up: scale not given: the % may be the effect or the level left.
Assay [14] deals with Beta-lactamase VIM-2 (Pseudomonas aeruginosa) (UniProt Q9K2N0). Briefly: Activity of Pseudomonas aeruginosa VIM2 assessed as drug hydrolysis by spectrophotometry relative to cephaloridine. Details: scale not given: the % may be the effect or the level left.
Assay [15] deals with Metallo beta-lactamase (Pseudomonas aeruginosa) (UniProt Q6TUJ4). Put plainly: Ratio of Kcat to Km of Pseudomonas aeruginosa IMP1 assessed as drug hydrolysis by spectrophotometry relative to cephaloridine. On the set-up: scale not given: the % may be the effect or the level left.
Chain of Metallo beta-lactamase (Pseudomonas aeruginosa) (Q6TUJ4 as listed by the source): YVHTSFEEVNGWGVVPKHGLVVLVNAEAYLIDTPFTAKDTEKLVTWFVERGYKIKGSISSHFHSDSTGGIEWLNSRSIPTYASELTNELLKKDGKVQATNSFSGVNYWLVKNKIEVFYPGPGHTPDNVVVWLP
Assay [16] addresses Beta-lactamase VIM-2 (Pseudomonas aeruginosa) (UniProt Q9K2N0). Briefly: Ratio of Kcat to Km of Pseudomonas aeruginosa VIM2 assessed as drug hydrolysis by spectrophotometry relative to cephaloridine. Details: scale not given: the % may be the effect or the level left.
Assay [17] addresses Beta-lactamase (Morganella morganii) (UniProt P94958). Briefly: Activity of Morganella morganii AmpC assessed as drug hydrolysis by spectrophotometry relative to cephaloridine. On the set-up: scale not given: the % may be the effect or the level left.
For assay [18], the target named is Beta-lactamase TEM (Escherichia coli) (UniProt P62593). Briefly: Activity of Escherichia coli TEM1 assessed as drug hydrolysis by spectrophotometry relative to cephaloridine. Details: scale not given: the % may be the effect or the level left.
Chain of Beta-lactamase TEM (Escherichia coli) (P62593 whole entry): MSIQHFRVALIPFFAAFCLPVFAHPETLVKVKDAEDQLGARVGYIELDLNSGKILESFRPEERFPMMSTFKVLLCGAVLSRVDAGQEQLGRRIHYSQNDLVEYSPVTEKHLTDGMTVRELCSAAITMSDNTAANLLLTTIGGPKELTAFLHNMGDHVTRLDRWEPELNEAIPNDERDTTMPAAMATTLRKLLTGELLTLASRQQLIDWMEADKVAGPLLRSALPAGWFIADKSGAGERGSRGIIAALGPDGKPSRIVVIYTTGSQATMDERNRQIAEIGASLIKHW
The target in assay [19] is Beta-lactamase (Staphylococcus aureus) (UniProt P00807). Put plainly: Ratio of Kcat to Km of Staphylococcus aureus betalactamase PC1 assessed as drug hydrolysis by spectrophotometry relative to cephaloridine. Details: scale not given: the % may be the effect or the level left.
Chain of Beta-lactamase (Staphylococcus aureus) (P00807 whole entry): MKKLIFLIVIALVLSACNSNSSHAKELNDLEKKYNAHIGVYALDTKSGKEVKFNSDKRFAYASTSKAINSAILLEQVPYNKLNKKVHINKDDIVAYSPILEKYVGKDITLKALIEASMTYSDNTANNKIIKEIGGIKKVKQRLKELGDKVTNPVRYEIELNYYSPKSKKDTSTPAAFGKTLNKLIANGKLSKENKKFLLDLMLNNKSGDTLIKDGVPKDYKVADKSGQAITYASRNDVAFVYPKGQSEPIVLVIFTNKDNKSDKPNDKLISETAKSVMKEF
The target is the same in assay [20]. Briefly: Activity of Staphylococcus aureus betalactamase PC1 assessed as drug hydrolysis by spectrophotometry relative to cephaloridine. Details: scale not given: the % may be the effect or the level left.
For assay [21], the target named is Beta-lactamase (Morganella morganii) (UniProt P94958). Briefly: Ratio of Kcat to Km of Morganella morganii AmpC assessed as drug hydrolysis by spectrophotometry relative to cephaloridine. On the set-up: scale not given: the % may be the effect or the level left.
Assay [22] addresses T4, Beta-lactamase (Providencia stuartii) (UniProt O69773).
T4 sequence (whole entry): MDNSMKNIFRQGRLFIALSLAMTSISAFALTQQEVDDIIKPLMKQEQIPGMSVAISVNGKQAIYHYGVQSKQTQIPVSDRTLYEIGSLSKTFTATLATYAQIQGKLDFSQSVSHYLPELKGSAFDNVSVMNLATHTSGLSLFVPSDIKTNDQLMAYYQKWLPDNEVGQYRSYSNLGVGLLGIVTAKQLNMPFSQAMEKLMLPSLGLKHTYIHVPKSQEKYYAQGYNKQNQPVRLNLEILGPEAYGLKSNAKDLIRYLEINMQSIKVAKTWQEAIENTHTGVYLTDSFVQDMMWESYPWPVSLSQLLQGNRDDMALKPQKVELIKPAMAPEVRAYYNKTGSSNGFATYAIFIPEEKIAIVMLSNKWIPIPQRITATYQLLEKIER
Briefly: Activity of Providencia stuartii AmpC assessed as drug hydrolysis by spectrophotometry relative to cephaloridine. Details: scale not given: the % may be the effect or the level left.

In assay [23] the target is T4, Beta-lactamase (Providencia stuartii). Put plainly: Ratio of Kcat to Km of Providencia stuartii AmpC assessed as drug hydrolysis by spectrophotometry relative to cephaloridine. On the set-up: scale not given: the % may be the effect or the level left.
In assay [24] the target is Beta-lactamase (Pseudomonas aeruginosa (strain ATCC 15692 / PAO1 / 1C / PRS 101 / LMG12228)) (UniProt P24735). Put plainly: Activity of Pseudomonas aeruginosa 4352 AmpC assessed as drug hydrolysis by spectrophotometry relative to cephaloridine. Details: scale not given: the % may be the effect or the level left.
Chain of Beta-lactamase (Pseudomonas aeruginosa (strain ATCC 15692 / PAO1 / 1C / PRS 101 / LMG12228)) (P24735 27-397 limits assumed): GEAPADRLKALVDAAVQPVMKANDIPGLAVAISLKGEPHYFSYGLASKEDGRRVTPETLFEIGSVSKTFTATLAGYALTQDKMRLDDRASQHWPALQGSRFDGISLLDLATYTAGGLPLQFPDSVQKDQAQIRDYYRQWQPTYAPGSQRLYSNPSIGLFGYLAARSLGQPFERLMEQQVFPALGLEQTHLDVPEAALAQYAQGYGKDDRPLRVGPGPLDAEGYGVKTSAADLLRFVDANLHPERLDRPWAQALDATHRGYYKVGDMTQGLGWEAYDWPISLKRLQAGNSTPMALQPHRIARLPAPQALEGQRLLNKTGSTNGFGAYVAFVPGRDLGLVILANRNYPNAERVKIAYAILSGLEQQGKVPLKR
Assay [25] has the same target. Briefly: Ratio of Kcat to Km of Pseudomonas aeruginosa 4352 AmpC assessed as drug hydrolysis by spectrophotometry relative to cephaloridine. Details: scale not given: the % may be the effect or the level left.
For assay [26] the target is unchanged. Briefly: Activity of Pseudomonas aeruginosa 18SH AmpC assessed as drug hydrolysis by spectrophotometry relative to cephaloridine. On the set-up: scale not given: the % may be the effect or the level left.
Assay [27] has the same target. Put plainly: Ratio of Kcat to Km of Pseudomonas aeruginosa 18SH AmpC assessed as drug hydrolysis by spectrophotometry relative to cephaloridine. On the set-up: scale not given: the % may be the effect or the level left.
For assay [28] the target is unchanged. Put plainly: Activity of Pseudomonas aeruginosa MK-1184 AmpC assessed as drug hydrolysis by spectrophotometry relative to cephaloridine. On the set-up: scale not given: the % may be the effect or the level left.
The target is the same in assay [29]. Put plainly: Ratio of Kcat to Km of Pseudomonas aeruginosa MK-1184 AmpC assessed as drug hydrolysis by spectrophotometry relative to cephaloridine. On the set-up: scale not given: the % may be the effect or the level left.
In assay [30] the target is Beta-lactamase (Serratia marcescens) (UniProt P18539). Put plainly: Activity of Serratia marcescens AmpC assessed as drug hydrolysis by spectrophotometry relative to cephaloridine. Details: scale not given: the % may be the effect or the level left.
Chain of Beta-lactamase (Serratia marcescens) (P18539 whole entry): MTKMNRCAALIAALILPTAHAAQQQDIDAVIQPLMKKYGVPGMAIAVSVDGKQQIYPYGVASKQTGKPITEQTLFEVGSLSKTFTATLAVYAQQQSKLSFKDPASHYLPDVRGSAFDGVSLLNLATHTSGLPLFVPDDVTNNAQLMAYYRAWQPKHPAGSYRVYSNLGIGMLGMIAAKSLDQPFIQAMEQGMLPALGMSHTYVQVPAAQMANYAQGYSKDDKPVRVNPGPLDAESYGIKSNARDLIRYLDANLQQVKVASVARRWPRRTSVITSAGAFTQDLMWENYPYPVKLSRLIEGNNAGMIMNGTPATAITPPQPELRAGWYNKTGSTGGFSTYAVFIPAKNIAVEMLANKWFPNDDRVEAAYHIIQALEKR
The target is the same in assay [31]. Briefly: Ratio of Kcat to Km of Serratia marcescens AmpC assessed as drug hydrolysis by spectrophotometry relative to cephaloridine. Details: scale not given: the % may be the effect or the level left.
For assay [32], the target named is Beta-lactamase (Pseudomonas aeruginosa (strain ATCC 15692 / PAO1 / 1C / PRS 101 / LMG12228)) (UniProt P24735). Put plainly: Activity of Pseudomonas aeruginosa AmpC assessed as drug hydrolysis by spectrophotometry relative to cephaloridine. On the set-up: scale not given: the % may be the effect or the level left.
For assay [33] the target is unchanged. Put plainly: Ratio of Kcat to Km of Pseudomonas aeruginosa AmpC assessed as drug hydrolysis by spectrophotometry relative to cephaloridine. Details: scale not given: the % may be the effect or the level left.

What is called Km is the substrate concentration at which the rate is half of its maximum. The kcat is the maximal rate divided by the concentration of active sites. One may read the kcat/Km as the turnover number divided by the Michaelis constant. As for `Nc1nc(/C(=N/O)C(=O)N[C@@H]2C(=O)N3C(C(=O)O)=C(/C=C4\CCN([C@@H]5CCNC5)C4=O)CS[C@H]23)ns1`, the Activity in assay [1] was 1.6%; in assay [2], 6%; in assay [3], 7.4%; in assay [4], 140%; in assay [5] it was 290%; in assay [6], 33%. For the same molecule, the Activity in assay [7] worked out at 100%; with Klebsiella pneumoniae [9], 19%; in the assay on Klebsiella pneumoniae [11], 20%; in assay [12], 0.49%; in assay [13], 0.73%; in [14], 13%. Also, the Activity in assay [15] is 990%; in [16], 380%; in assay [17] it was less than 0.0064%; in [18], 0.9%; in assay [19], 24%; in assay [20], 17%. In addition, the Activity in assay [21] was less than 0.071%; in assay [22] it was 0.03%; in [23] it was 0.11%; in assay [24], less than 0.024%; in assay [25] it was 0.14%; in assay [26], 0.028%. Moreover, the Activity in [27] is 0.71%; in assay [28] it was 2%; in assay [29], 1%; in assay [30], less than 0.14%; in [31], less than 0.27%; in assay [32], 1400%. In addition, in assay [33], the Activity amounted to 9900%. For the same molecule, the Km in the assay on Klebsiella pneumoniae [8] is 63 µM. Further, the kcat in the assay with Klebsiella pneumoniae [8] was 6.9 s⁻¹. Moreover, the kcat/Km in the assay on Klebsiella pneumoniae [10] was found to be 110000 M⁻¹ s⁻¹.

For the molecule `O=C(Cc1cccs1)N[C@@H]1C(=O)N2C(C(=O)O)=C(/C=C/c3ccc([N+](=O)[O-])cc3[N+](=O)[O-])CS[C@H]12`, the Activity in assay [17] is 160%; in assay [21], 1400%; in assay [24], 68%; in assay [25] it was 1800%; in [30], 42%; in [31], 19%.

Consider `O=C(Cc1cccs1)N[C@@H]1C(=O)N2C(C(=O)[O-])=C(C[n+]3ccccc3)CS[C@H]12`, for which, in the assay on Klebsiella pneumoniae [8], the Km worked out at 66 µM and the catalytic constant (kcat) was determined as 37 s⁻¹. Also, in the assay on Klebsiella pneumoniae [10], the kcat/Km was 560000 M⁻¹ s⁻¹.
